Laboratory results published in US8592174B2, “Peptidase substrates” (bioMérieux, S.A., priority 2009, dated 2013).

How the values were obtained:
[1] = tested on: Escherichia coli NCTC 10 418; assay: Peptidase detection on Columbia medium (Example 2); format: cell-based; set-up: key to Growth: NG: No growth; 0.5: weak growth; 1: moderate growth; 2: good growth; details: 40 mg in 400 ml Columbia, 24 h 37° C.
[2] = tested on: Salmonella typhimurium NCTC 74; assay: Peptidase detection on Columbia medium (Example 2); format: cell-based; set-up: key to Growth: NG: No growth; 0.5: weak growth; 1: moderate growth; 2: good growth; details: 40 mg in 400 ml Columbia, 24 h 37° C.
[3] = tested on: Streptococcus pyogenes NCTC 8 306; assay: Peptidase detection on Columbia medium (Example 2); format: cell-based; set-up: key to Growth: NG: No growth; 0.5: weak growth; 1: moderate growth; 2: good growth; key to Fluo. / Color / Color post-acid.: —: no color; details: 40 mg in 400 ml Columbia, 24 h 37° C.
[4] = tested on: Yersinia enterocolitica NCTC 11 176; assay: Peptidase detection on Columbia medium (Example 2); format: cell-based; set-up: key to Growth: NG: No growth; 0.5: weak growth; 1: moderate growth; 2: good growth; details: 40 mg in 400 ml Columbia, 24 h 37° C.
[5] = tested on: Gram-negative bacteria, Gram-positive bacteria, yeasts; details: conclusion of Example 2
Experimental: 40 mg of each of the substrates were dissolved in 4 ml of dimethyl sulfoxide (80 mg for Asn-ASQM^+) and added to 400 ml of previously autoclaved Columbia medium. The 6 media were distributed into Petri dishes 90 mm in diameter, in a proportion of 20 ml per dish.
Seventeen strains of microorganisms stemming from collections and belonging to various species of bacteria and yeasts are inoculated in spots of approximately 10 000 colony-forming units.
The media are incubated for 24 hours at 37° C., and then the colonies formed are examined visually, with or without the addition of acid and under a UV lamp at 365 nm.

[6] = tested on: Pseudomonas aeruginosa NCTC 10 662; assay: Peptidase detection on Columbia medium (Example 2); format: cell-based; set-up: key to Growth: NG: No growth; 0.5: weak growth; 1: moderate growth; 2: good growth; details: 40 mg in 400 ml Columbia, 24 h 37° C.
[7] = tested on: Enterococcus faecium NCTC 7 171; assay: Peptidase detection on Columbia medium (Example 2); format: cell-based; set-up: key to Growth: NG: No growth; 0.5: weak growth; 1: moderate growth; 2: good growth; key to Fluo. / Color / Color post-acid.: —: no color; details: 40 mg in 400 ml Columbia, 24 h 37° C.
[8] = tested on: Listeria monocytogenes NCTC 11 994; assay: Peptidase detection on Columbia medium (Example 2); format: cell-based; set-up: key to Growth: NG: No growth; 0.5: weak growth; 1: moderate growth; 2: good growth; key to Fluo. / Color / Color post-acid.: —: no color; details: 40 mg in 400 ml Columbia, 24 h 37° C.
[9] = tested on: Enterococcus faecalis NCTC 775; assay: Peptidase detection on Columbia medium (Example 2); format: cell-based; set-up: key to Growth: NG: No growth; 0.5: weak growth; 1: moderate growth; 2: good growth; key to Fluo. / Color / Color post-acid.: —: no color; details: 40 mg in 400 ml Columbia, 24 h 37° C.
[10] = tested on: Candida albicans ATCC 90 028; assay: Peptidase detection on Columbia medium (Example 2); format: cell-based; set-up: key to Growth: NG: No growth; 0.5: weak growth; 1: moderate growth; 2: good growth; key to Fluo. / Color / Color post-acid.: —: no color; details: 40 mg in 400 ml Columbia, 24 h 37° C.
[11] = tested on: Enterobacter cloacae NCTC 11 936; assay: Peptidase detection on Columbia medium (Example 2); format: cell-based; set-up: key to Growth: NG: No growth; 0.5: weak growth; 1: moderate growth; 2: good growth; details: 40 mg in 400 ml Columbia, 24 h 37° C.
[12] = tested on: Staphylococcus epidermidis NCTC 11 047; assay: Peptidase detection on Columbia medium (Example 2); format: cell-based; set-up: key to Growth: NG: No growth; 0.5: weak growth; 1: moderate growth; 2: good growth; key to Fluo. / Color / Color post-acid.: —: no color; details: 40 mg in 400 ml Columbia, 24 h 37° C.
[13] = tested on: Serratia marcescens NCTC 10 211; assay: Peptidase detection on Columbia medium (Example 2); format: cell-based; set-up: key to Growth: NG: No growth; 0.5: weak growth; 1: moderate growth; 2: good growth; details: 40 mg in 400 ml Columbia, 24 h 37° C.
[14] = tested on: Providencia rettgeri NCTC 7 475; assay: Peptidase detection on Columbia medium (Example 2); format: cell-based; set-up: key to Growth: NG: No growth; 0.5: weak growth; 1: moderate growth; 2: good growth; details: 40 mg in 400 ml Columbia, 24 h 37° C.
[15] = tested on: Candida glabrata NCPF 3 943; assay: Peptidase detection on Columbia medium (Example 2); format: cell-based; set-up: key to Growth: NG: No growth; 0.5: weak growth; 1: moderate growth; 2: good growth; key to Fluo. / Color / Color post-acid.: —: no color; details: 40 mg in 400 ml Columbia, 24 h 37° C.
[16] = tested on: Staphylococcus aureus NCTC 11 939; assay: Peptidase detection on Columbia medium (Example 2); format: cell-based; set-up: key to Growth: NG: No growth; 0.5: weak growth; 1: moderate growth; 2: good growth; key to Fluo. / Color / Color post-acid.: —: no color; details: 40 mg in 400 ml Columbia, 24 h 37° C.
[17] = tested on: Bacillus subtilis NCTC 9 372; assay: Peptidase detection on Columbia medium (Example 2); format: cell-based; set-up: key to Growth: NG: No growth; 0.5: weak growth; 1: moderate growth; 2: good growth; key to Fluo. / Color / Color post-acid.: —: no color; details: 40 mg in 400 ml Columbia, 24 h 37° C.
[18] = tested on: Staphylococcus aureus NCTC 6 571; assay: Peptidase detection on Columbia medium (Example 2); format: cell-based; set-up: key to Growth: NG: No growth; 0.5: weak growth; 1: moderate growth; 2: good growth; key to Fluo. / Color / Color post-acid.: —: no color; details: 40 mg in 400 ml Columbia, 24 h 37° C.

Growth [2]: 2
Color post-acid. ([2]; addition of acid): Pale yellow
Color [3]: —
Growth [3]: NG
Fluo. ([3]; UV lamp 365 nm): —
Color post-acid. ([3]; addition of acid): —
Growth [6]: 2
Fluo. ([6]; UV lamp 365 nm): Green
Color post-acid. ([6]; addition of acid): Orange
Color [7]: —
Growth [7]: NG
Fluo. ([7]; UV lamp 365 nm): —
Color post-acid. ([7]; addition of acid): —
Color [8]: —
Growth [8]: NG
Fluo. ([8]; UV lamp 365 nm): —
Color post-acid. ([8]; addition of acid): —
Color [9]: —
Growth [9]: NG
Fluo. ([9]; UV lamp 365 nm): —
Color post-acid. ([9]; addition of acid): —
Growth [11]: 2
Color post-acid. ([11]; addition of acid): Pale yellow
Growth [13]: 2
Fluo. ([13]; UV lamp 365 nm): Green
Color post-acid. ([13]; addition of acid): Orange
Color [17]: —
Growth [17]: NG
Fluo. ([17]; UV lamp 365 nm): —
Color post-acid. ([17]; addition of acid): —
Compound: NCCC(=O)Nc1ccc(C=Cc2ccc3ccccc3n2)cc1 [β-Ala-ASQ, β-alanyl-2-(4′-amidostyryl)quinoline]
Growth [1]: 2
Color post-acid. ([1]; addition of acid): Pale yellow
Growth [4]: 2
Color post-acid. ([4]; addition of acid): Pale yellow
toxicity / growth of microorganisms [5]: toxic with respect to certain groups
Color [10]: —
Growth [10]: NG
Fluo. ([10]; UV lamp 365 nm): —
Color post-acid. ([10]; addition of acid): —
Color [12]: —
Growth [12]: NG
Fluo. ([12]; UV lamp 365 nm): —
Color post-acid. ([12]; addition of acid): —
Growth [14]: 2
Color post-acid. ([14]; addition of acid): Pale yellow
Color [15]: —
Growth [15]: NG
Fluo. ([15]; UV lamp 365 nm): —
Color post-acid. ([15]; addition of acid): —
Color [16]: —
Growth [16]: NG
Fluo. ([16]; UV lamp 365 nm): —
Color post-acid. ([16]; addition of acid): —
Color [18]: —
Growth [18]: NG
Fluo. ([18]; UV lamp 365 nm): —
Color post-acid. ([18]; addition of acid): —
